Assay results taken from publication PMC6154719 (Molecules : A Journal of Synthetic Chemistry and Natural …, 2017).

Legend:
Assay type in all cases: in vitro ADME
[1] = tested on: SULT; assay: SULT activity in rat liver subcellular fraction; details: 100 µM sesquiterpene, control 8.74 ± 0.52
Experimental: (§1) Enzyme activities were assayed in human and rat liver cytosolic and microsomal fractions. The enzyme assays (each performed in 4–8 replicates) were repeated three times (HPLC measurement of CYP activities was repeated only twice, Table 3). Inhibition studies were carried out by incubation of specific substrates in the presence of sesquiterpenes (in the range 0–100 µM).
(§2) The assays of all other enzymes were based on spectrophotometric detection of product formed or detection of decreasing substrate/cofactor levels using microplate reader Tecan Infinite M200 in cytosolic or microsomal fractions. Enzyme activities were determined using slight modifications of previously-published methods: carbonyl reducing enzymes (AKR1A, AKR1C, CBR1 [45], NQO1 [46]), UDP-glucuronosyltransferase (UGT [47]), sulfotransferase (SULT [48]), and cytosolic glutathione-S-transferase (GST [49]).
(§3) Sesquiterpenes CNER, TNER and FAR, non-volatile liquids, were pipetted, and proper concentration was calculated according to density. All compounds were dissolved in DMSO. The final solvent concentration in the inhibition assays was 1%, which had no effect on the enzyme activity (data not shown). Non-enzymatic interference of sesquiterpenes with some compounds in the reaction mixtures (e.g., fluorescence enhancing or quenching) was considered and excluded. All experiments were performed in three replicates, if not stated otherwise.
(§4) CNER, TNER and FAR at a fixed concentration of 100 µM were screened for inhibition of cytosolic AKR1A1, AKR1C, CBR1, NQO1, SULT, and GST, and microsomal CYPs and UGT. The degree of inhibition caused by sesquiterpenes was compared with non-inhibited control reactions, which contained solvent without sesquiterpenes.

[2] = target: T1, CYP1A2 (Rattus norvegicus, UniProt P04799); assay: CYP1A2 (EROD activity, 7-ethoxyresorufin O-deethylation) in rat liver microsomes; details: for Specific Activity, CYP1A2 (EROD activity): in the presence of 100 µM sesquiterpene, control 22.8 ± 0.1
T1 construct: Frozen liver (both rat and human) was thawed; from tissue; host or cells: rat liver microsomal fraction
T1 sequence (P04799 1-513): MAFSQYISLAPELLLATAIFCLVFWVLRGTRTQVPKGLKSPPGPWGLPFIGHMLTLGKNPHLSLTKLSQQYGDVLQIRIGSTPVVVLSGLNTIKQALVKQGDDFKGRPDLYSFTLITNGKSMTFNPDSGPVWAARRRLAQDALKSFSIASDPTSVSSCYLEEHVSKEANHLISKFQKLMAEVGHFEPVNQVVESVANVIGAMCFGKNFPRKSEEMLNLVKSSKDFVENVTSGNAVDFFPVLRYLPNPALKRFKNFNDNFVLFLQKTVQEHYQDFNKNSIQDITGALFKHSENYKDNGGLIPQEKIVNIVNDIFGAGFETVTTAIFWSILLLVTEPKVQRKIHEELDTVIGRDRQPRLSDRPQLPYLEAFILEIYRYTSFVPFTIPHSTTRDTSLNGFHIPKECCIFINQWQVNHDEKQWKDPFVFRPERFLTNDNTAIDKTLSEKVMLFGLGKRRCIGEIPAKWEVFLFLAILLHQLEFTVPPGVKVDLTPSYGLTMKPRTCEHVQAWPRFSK
Experimental: as §1
(§5) Enzyme activities of individual CYP forms were measured according to established protocols. The following microsomal CYP activities were tested: CYP2A6, coumarin 7-hydroxylation; CYP2B6, 7-ethoxy-4-(trifluoromethyl)coumarin 7-deethylation, CYP2C9, diclofenac 4′-hydroxylation, CYP2C19 assay, S-mephenytoin 4′-hydroxylation, CYP2D6 on bufuralol 1′-hydroxylation, CYP2E1, chlorzoxazone 6-hydroxylation and CYP3A4, testosterone 6β-hydroxylation, and midazolam 1′-hydroxylation. Activities were measured using the Prominence HPLC system (Shimadzu, Kyoto, Japan), equipped with a LiChroCART 250-4 LiChrospher 100 RP-18 column or Chromolith®HighResolution RP-18 end-capped column (Merck, Darmstadt, Germany) and UV or fluorescence detection, according to the cited literature. Further incubation details are described either in the corresponding references, as well as in the papers from this laboratory e.g., [42, 43, 44]. CYP1A2, 7-ethoxyresorufin O-deethylation, and CYP3A4/2B6 (human), CYP2B1 (rat), benzyloxyresorufin O-debenzylation were measured using the microplate reader Tecan Infinite M200 (Tecan Group; Mannedorf, Switzerland).
as §3, §4
(§6) The concentration of sesquiterpenes required for 50% inhibition of enzyme activity, the IC50 value, was determined. Their final concentrations in the reaction mixture were proposed to cover the entire inhibitory range of these compounds (1–100 µM). The IC50 values for each sesquiterpene were determined by plotting sigmoidal dose response curves of specific enzyme activity vs. logarithm of sesquiterpene concentration using GraphPad Prism version 6.07 for Windows (GraphPad Software Inc., La Jolla, CA, USA).
(§7) The kinetic inactivation study of the CYP1A2 (EROD activity) and CYP2B/3A (BROD activity), both in rat and human, with TNER, was performed to find out the mechanism of enzyme inhibition by this sesquiterpene. Mechanism of EROD and BROD inhibition was tested at the final ethoxyresorufin or benzyloxyresorufin concentrations 0.5–5.0 µM. The concentration of TNER was 5.0 µM.
(§8) Experimental data were fitted to the Michaelis-Menten equation, basic kinetic parameters were determined using the program GraphPad Prism version 6.07 for Windows. The type of inhibition was estimated using a Lineweaver-Burk (double-reciprocal) plot.

[3] = tested on: CYP2B/3A; assay: CYP2B/3A (BROD activity, benzyloxyresorufin O-debenzylation) in human liver microsomes; details: for Specific Activity, CYP2B/3A (BROD activity): in the presence of 100 µM sesquiterpene, control 1.22 ± 0.05; for inhibition at 5 µM: liver microsomes, human, 5 µM inhibitor; for inhibition at 5 µM / IC50: probe benzyloxyresorufin
Experimental: as §1, §5, §3, §4, §6, §7, §8

[4] = target: T2, CBR1 (Rattus norvegicus, UniProt P47727); assay: CBR1 activity in rat liver subcellular fraction; details: 100 µM sesquiterpene, control 21.7 ± 1.6
T2 construct: Frozen liver (both rat and human) was thawed; from tissue; host or cells: rat liver cytosolic fraction
T2 sequence (P47727 1-277): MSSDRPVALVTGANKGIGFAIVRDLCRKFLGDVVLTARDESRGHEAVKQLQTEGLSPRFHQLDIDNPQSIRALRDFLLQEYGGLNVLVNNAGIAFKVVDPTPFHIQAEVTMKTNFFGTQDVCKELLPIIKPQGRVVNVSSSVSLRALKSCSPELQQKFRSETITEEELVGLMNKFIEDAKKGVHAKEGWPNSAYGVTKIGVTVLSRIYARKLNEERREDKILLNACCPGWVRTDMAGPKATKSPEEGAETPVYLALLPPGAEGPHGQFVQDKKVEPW
Experimental: as §1, §2, §3, §4

Row | Compound | Specific activity, SULT [1] | IC50 ([2]; rat liver microsomes) | Specific Activity, CYP1A2 (EROD activity) ([2]; rat liver microsomes) | Specific Activity, CYP2B/3A (BROD activity) ([3]; human liver microsomes) | inhibition at 5 µM [3] | IC50 ([3]; human liver microsomes) | Specific activity, CBR1 [4] | Ki ([2]; rat liver microsomes, EROD activity) | K’M ([2]; rat liver microsomes, ethoxyresorufin 0.5–5.0 µM in the presence of TNER 5 µM, KM without TNER 1.64 ± 0.45) | V’MAX ([2]; rat liver microsomes, ethoxyresorufin 0.5–5.0 µM in the presence of TNER 5 µM, VMAX without TNER 4.32 ± 0.47) | type of inhibition, CYP1A2 (EROD) ([2]; rat microsomes, 5 µM TNER, ethoxyresorufin 0.5–5.0 µM) | K’M ([3]; human liver microsomes, benzyloxyresorufin 0.5–5.0 µM in the presence of TNER 5 µM, KM without TNER 0.93 ± 0.22) | V’MAX ([3]; human liver microsomes, benzyloxyresorufin 0.5–5.0 µM in the presence of TNER 5 µM, VMAX without TNER 2.27 ± 0.17) | type of inhibition, BROD activity ([3]; human microsomes, 5 µM TNER, benzyloxyresorufin 0.5–5.0 µM)
1 | C=CC(C)(O)CC/C=C(/C)CCC=C(C)C (stereo not drawn) [CNER, cis-nerolidol] | 8.74 ± 0.26 nmol/mg/min | 5.7 µM | 2.16 ± 0.04 pmol/mg/min | 0.168 ± 0.007 pmol/mg/min | 71% | 1.32 µM | 19.5 ± 1.4 nmol/mg/min | – | – | – | – | – | – | –
2 | CC(C)=CCC/C(C)=C/CC/C(C)=C/CO [FAR, farnesol] | 8.55 ± 0.30 nmol/mg/min | 16.1 µM | 1.55 ± 0.02 pmol/mg/min | 0.033 ± 0.004 pmol/mg/min | 85% | 1.78 µM | 21.1 ± 1.4 nmol/mg/min | – | – | – | – | – | – | –
3 | C=CC(C)(O)CC/C=C(\C)CCC=C(C)C (stereo not drawn) [TNER, trans-nerolidol] | 8.48 ± 0.28 nmol/mg/min | 4.38 µM | 1.53 ± 0.03 pmol/mg/min | 0.188 ± 0.005 pmol/mg/min | 68% | 2.4 µM | 20.5 ± 1.6 nmol/mg/min | 4.68 ± 0.66 µM | 1.89 ± 0.49 µM | 2.21 ± 0.24 nM/min | non-competitive | 0.94 ± 0.39 µM | 0.74 ± 0.10 nM/min | non-competitive
